Results: US20070060636A1, “High enantiomeric purity dexanabinol for pharmaceutical compositions” (priority 2002, published 2007)
Read-outs that look alike come from different tables or passages of the source.

Tests used:
CB1 mediated activity = assay: mice tetrad assay (suppression of spontaneous activity, hypothermia, catalepsy); format: in vivo; settings: 50 mg/kg intravenously, dexanabinol according to the invention
From the text: The prepared sample was further tested for suppression of spontaneous activity, hypothermia, and catalepsy measured in the mice tetrad assay, and clearly produced adverse effects. […] Finally, it caused significant catalepsy, with the animals remaining immobile on the beam for almost 30 seconds.
Psychoactive cannabinoids have a variety of pharmacological effects that are evoked through interactions with the CB1 receptors predominantly expressed in the brain. The central nervous system effects that occur after in vivo exposure to HU-210 include euphoria, hypokinesia, hypothermia, anti-nociception, and catalepsy. Hypokinesia, hypothermia, anti-nociception, and catalepsy are the activities that form the basis of the “Tetrad assay” of CB1 mediated activity. […] The threshold for psychomimetic effects of oral THC in humans is in the range of 10-15 mg THC in an adult, i.e from about 0.16 to about 0.25 mg THC/kg body weight for adults of approximately 60 kg (“Cannabis and Cannabinoids, pharmacology, toxicology and therapeutic potential” edited by Grotenhermen and Russo, the Haworth Integrative Healing Press; Chapter 31 pp 345 and 351).
Dexanabinol according to the present invention was tested for suppression of spontaneous activity, hypothermia, and catalepsy in the mice tetrad assay.

[1] = 28-day multiple dose study, monkey; format: in vivo, monkeys; settings: for AUC(0-inf) / Cmax: plasma, 25 mg/kg i.v. daily, final dose Day 28 (NOAEL); for AUC∞ Ratio to Phase I / Cmax Ratio to Phase I / AUC∞ Ratio to Phase II / Cmax Ratio to Phase II: 25 mg/kg Day 28; for AUC∞ Ratio to Phase I / Cmax Ratio to Phase I: vs human 150 mg Phase I; for AUC∞ Ratio to Phase II / Cmax Ratio to Phase II: vs human 150 mg Phase II
Protocol: The pharmacokinetics of dexanabinol of high enantiomeric purity formulated in CREMOPHOR EL®:ethanol as described in Example 4 were investigated in rats, rabbits, and monkeys following intravenous administration of single doses, and 14 and 28 days of repeated dosing. Human pharmacokinetics was studied during Phase I and Phase II clinical studies. Dexanabinol used in the pharmacokinetic studies was formulated as drug concentrates of 50 and 100 mg/ml and diluted with sterile 0.9% NaCl solution prior to intravenous (i.v.) administration to the desired final doses. Determination of dexanabinol concentrations in plasma and brain extracts was carried out using a validated Gas Chromatography-Mass Spectra (GC-MS) assay following solid phase extraction of the drug and derivatization. The limit of quantitation of the assay is 0.1 ng/ml.
(§1) Pharmacokinetic parameters were estimated by a non-compartmental method using WinNonlin Professional version 3.2 (Pharsight Corp., Mountain View, Calif.). The maximum plasma concentration (Cmax), when the drug is administered by infusion, is the concentration at the end of infusion. The Cmax following intravenous bolus administration is the value estimated by the software to be the concentration at t=0. The terminal slope (X) was estimated by linear regression through the last time points and used to calculate the terminal half-life (t1/2) from the following equation: t1/2=0.693/λ The area under the curve from time of dosing through the last time point (AUCz) was calculated by the linear trapezoid method. The AUC extrapolated to infinity (AUC∞) was calculated from the following equation: AUC∞=AUCz+Cz/λ where Cz is the concentration at the last time point predicted by the linear regression. AUC∞ was normalized for dose (mg/kg) and presented as AUC∞/Dose. Mean residence time (MRT), when the drug is administered by infusion is described by the following equation: MRT=(AUMC/AUC)−(TI)/2 Mean residence time after i.v. bolus administration is described by the following equation: MRT=(AUMC/AUC) where AUMC is the area under the first moment curve and TI is the length of infusion. Plasma clearance (CL), and the apparent volume of distribution at steady state (Vss) were calculated from the following equations: CL=Dose/AUC∞ Vss=MRT×CL
In 14-day multiple dose pharmacokinetic studies, the NOAEL was 15 mg/kg/day in rats and 25 mg/kg/day in rabbits. In a 28-day study in monkeys the NOAEL was 25 mg/kg/day. Cmax and AUC observed following the last dose at the NOAEL in the multiple dose toxicity studies and the ratios of these values to those observed in the Phase I and II studies for the 150 mg dose are shown in Table 7.

[2] = 2nd Phase I study, single i.v. dose 48 or 150 mg, healthy male volunteers; format: in vivo, human; settings: for AUC∞/Dose: normalized for dose (mg/kg); for clearance / Cmax / MRT / AUC / AUC(0-inf) / half-life / Vd: male, human, plasma; for Vd: read-out: Vss
Protocol: as §1
A second human Phase I study involving 24 healthy male volunteers was carried out to compare the pharmacokinetics of dexanabinol following a single i.v. dose of 48 mg or 150 mg. The subjects were divided into two groups of 12 subjects each. Each group was premedicated with ATOSIL® 25 mg (Promethazine H1 blocker), and ZANTAC® 50 mg (Ranitidine H2 blocker) intravenously, followed 15 minutes later by a single short intravenous infusion of dexanabinol lasting 15 minutes. Blood samples for pharmacokinetic assays for dexanabinol were collected immediately before premedication (T=0), immediately after dosing (T=0+) (at the end of the infusion), at 5, 10, 20, 30, 45, and 60 min, and 2, 4, 6, 8, 12, 16, 24, 48, 72 and 96 hr post-dosing. Blood was also collected from four subjects from group 2 ([…]) on Days 6, 10 and 14. For both dose levels, initial rapid declines in plasma concentration followed by a progressively slower decline were observed.
Pharmacokinetic parameters were estimated by non-compartmental methods up to 96 hr post-infusion, using WinNonlin Professional version 3.2 (Pharsight Corp., Mountain View, Calif., USA).

[3] = both sexes, iv, monkey male & female
[4] = human Phase I, 150 mg single i.v., reference itself
[5] = iv, 48 mg single i.v. infusion, healthy volunteers, mean ± SE
[6] = iv, 48 mg single i.v. infusion, healthy volunteers, mean ± SE, up to 96 hr
[7] = iv, 150 mg single i.v. infusion, healthy volunteers, mean ± SE
[8] = iv, 150 mg single i.v. infusion, healthy volunteers, mean ± SE, up to 96 hr

Compound: CCCCCCC(C)(C)c1cc(O)c2c(c1)OC(C)(C)[C@H]1CC=C(CO)C[C@H]21 [dexanabinol, 1,1-dimethylheptyl-(3S,4S)-7-hydroxy-Δ^6-tetrahydrocannabinol]
- adverse effect in tetrad assay (CB1 mediated activity): no adverse effect
- AUC(0-inf) [1, 3]: 193000 ng·h/mL
- Cmax [1, 3]: 162000 ng/mL
- AUC∞ Ratio to Phase I ([1]; monkey female): 55.5
- Cmax Ratio to Phase I ([1]; monkey female): 32.2
- AUC∞ Ratio to Phase II ([1]; monkey female): 120.0
- Cmax Ratio to Phase II ([1]; monkey female): 81.9
- AUC∞ Ratio to Phase I ([1]; monkey male & female): 60.2
- Cmax Ratio to Phase I ([1]; monkey male & female): 32.4
- AUC∞ Ratio to Phase II ([1]; monkey male & female): 130.2
- Cmax Ratio to Phase II ([1]; monkey male & female): 82.5
- AUC∞ Ratio to Phase I ([1]; monkey male): 64.9
- Cmax Ratio to Phase I ([1]; monkey male): 32.6
- AUC∞ Ratio to Phase II ([1]; monkey male): 140.4
- Cmax Ratio to Phase II ([1]; monkey male): 83.0
- NOAEL at 28 days ([1]; monkey, in vivo, iv, 28-day study i.v.): 25 mg/kg/day
- AUC(0-inf) ([1]; iv, monkey female): 178000 ng·h/mL
- Cmax ([1]; iv, monkey female): 161000 ng/mL
- AUC(0-inf) ([1]; iv, monkey male): 208000 ng·h/mL
- Cmax ([1]; iv, monkey male): 163000 ng/mL
- 30 min plasma values as % of the end of infusion levels ([2]; 48 mg and 150 mg): about 11%
- AUC∞/Dose ([2]; 48 mg single i.v. infusion, healthy volunteers, mean ± SE): 78,137 ± 4,305 ng × min/ml
- AUC∞/Dose ([2]; 150 mg single i.v. infusion, healthy volunteers, mean ± SE): 93,408 ± 4,224 ng × min/ml
- AUC∞ Ratio to Phase I [2, 4]: 1.0
- Cmax Ratio to Phase I [2, 4]: 1.0
- clearance ([2]; intravenous, 48 mg and 150 mg, read-out: Total plasma clearance (CL), average across the two dose groups): 12 mL/min/kg
- Cmax ([2]; intravenous, after the 48 mg dose (0.63 mg/kg), read-out: Maximum plasma concentrations (Cmax)): 1230 ng/mL
- Cmax ([2]; intravenous, at 150 mg (2.05 mg/kg), read-out: Maximum plasma concentrations (Cmax)): 5000 ng/mL
- MRT [2, 5]: 8.4 ± 0.5 h
- AUC [2, 6]: 811 ng·h/mL
- AUC(0-inf) [2, 6]: 824 ng·h/mL
- half-life [2, 6]: 31.2 ± 3.6 h
- Cmax ([2]; iv, 48 mg single i.v. infusion, healthy volunteers, mean ± SE, up to 96 hr, read-out: Cmax): 1230 ng/mL
- clearance ([2]; iv, 48 mg single i.v. infusion, healthy volunteers, mean ± SE, read-out: CL): 13.2 ± 0.7 mL/min/kg
- Vd [2, 5]: 6.6 ± 0.5 L/kg
- MRT [2, 7]: 6.9 ± 0.4 h
- AUC [2, 8]: 3180 ng·h/mL
- AUC(0-inf) [2, 8]: 3210 ng·h/mL
- half-life [2, 8]: 23.4 ± 1.8 h
- Cmax ([2]; iv, 150 mg single i.v. infusion, healthy volunteers, mean ± SE, up to 96 hr, read-out: Cmax): 5010 ng/mL
- clearance ([2]; iv, 150 mg single i.v. infusion, healthy volunteers, mean ± SE, read-out: CL): 10.9 ± 0.5 mL/min/kg
- Vd [2, 7]: 4.5 ± 0.4 L/kg
- safety in human subjects ([2]; the two phase I studies): safe, well tolerated and no psychomimetic side effects were detected
